Test results reported in patent publication US10259779B2 (WAYNE STATE UNIVERSITY, priority 2016, dated 2019).
Blank lines part the entries; values can stand above or below the compound they belong to.

Key:
HDAC3 = HDAC3 (Homo sapiens, UniProt O15379); assay: ELISA-based HDAC activity assay, HDAC3; details: for IC50: read-out: IC50 values (nM) HDAC3
HDAC2 = HDAC2 (Homo sapiens, UniProt Q92769); assay: ELISA-based HDAC activity assay, HDAC2; details: for IC50: read-out: IC50 values (nM) HDAC2
HDAC1 = HDAC1 (Homo sapiens, UniProt Q13547); assay: ELISA-based HDAC activity assay, HDAC1; details: for IC50: read-out: IC50 values (nM) HDAC1
Chain of HDAC1 (Q13547 whole entry): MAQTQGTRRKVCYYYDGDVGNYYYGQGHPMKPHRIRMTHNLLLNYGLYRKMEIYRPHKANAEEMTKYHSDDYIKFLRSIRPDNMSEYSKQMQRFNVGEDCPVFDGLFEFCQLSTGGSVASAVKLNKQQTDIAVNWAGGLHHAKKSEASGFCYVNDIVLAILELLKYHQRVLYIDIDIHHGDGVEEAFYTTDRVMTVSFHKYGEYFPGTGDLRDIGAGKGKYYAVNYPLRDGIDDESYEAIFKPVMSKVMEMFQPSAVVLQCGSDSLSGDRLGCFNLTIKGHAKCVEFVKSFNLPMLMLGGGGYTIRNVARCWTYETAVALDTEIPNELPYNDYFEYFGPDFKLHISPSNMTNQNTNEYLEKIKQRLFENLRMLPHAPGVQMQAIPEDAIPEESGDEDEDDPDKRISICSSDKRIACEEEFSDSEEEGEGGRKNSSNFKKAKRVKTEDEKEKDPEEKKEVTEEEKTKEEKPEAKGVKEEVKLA

recombinant HDAC8 = target: T1, recombinant HDAC8 (Homo sapiens, UniProt Q9BY41); assay: Recombinant HDAC8 inhibition (HDAC-Glo); type: biochemical; details: for activity at 0.1 µM: 1.0 × 10^−7 M; for activity at 0.2 µM: 2.0 × 10^−7 M; for activity at 0.05 µM: 5.0 × 10^−8 M; for HDAC8 fold selectivity HDAC1: HDAC8 over HDAC1; for HDAC8 fold selectivity HDAC1 / HDAC8 fold selectivity HDAC2 / HDAC8 fold selectivity HDAC3: calculated from IC50 values; for HDAC8 fold selectivity HDAC2: HDAC8 over HDAC2; for HDAC8 fold selectivity HDAC3: HDAC8 over HDAC3
T1 construct: purchased BPS Bioscience
T1 sequence (Q9BY41 1-377): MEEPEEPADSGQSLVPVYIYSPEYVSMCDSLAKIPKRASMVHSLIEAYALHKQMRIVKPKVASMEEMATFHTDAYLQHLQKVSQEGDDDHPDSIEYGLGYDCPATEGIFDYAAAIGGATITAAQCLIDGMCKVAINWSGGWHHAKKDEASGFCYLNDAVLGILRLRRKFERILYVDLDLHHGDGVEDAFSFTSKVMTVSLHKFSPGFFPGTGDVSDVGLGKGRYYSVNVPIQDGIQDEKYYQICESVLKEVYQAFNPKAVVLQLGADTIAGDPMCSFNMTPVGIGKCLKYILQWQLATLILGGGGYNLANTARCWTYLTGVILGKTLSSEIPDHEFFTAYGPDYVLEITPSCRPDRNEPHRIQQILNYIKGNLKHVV
Experimental: Inhibitory activity with HDAC8 was measured using the following procedure. In a half area 96-well white opaque plate, recombinant HDAC8 (75 ng, BPS Bioscience) was incubated in HDAC-Glo™ buffer (39 μL) with inhibitor in DMSO (1 μL), or DMSO alone (1 μL) as a control, for 15 minutes at room temperature. HDAC-Glo™ reagent (10 μL) was added to each reaction and incubated for 30 min at room temperature. Luminescent signal was measured 30 minutes after adding the substrate reagent using a Geniosplus Fluorimeter (Tecan) at optimal gain. To determine IC50, the luminescent signal was first background corrected with the signal from a background control reaction where no HDAC8 enzyme was added.

HDAC6 = target: T2, HDAC6 (Homo sapiens, UniProt Q9UBN7); assay: ELISA-based HDAC activity assay, HDAC6; details: for HDAC6 fold selectivity HDAC1: HDAC6 over HDAC1; for HDAC6 fold selectivity HDAC1 / HDAC6 fold selectivity HDAC2 / HDAC6 fold selectivity HDAC3: calculated from IC50 values; for HDAC6 fold selectivity HDAC2: HDAC6 over HDAC2; for HDAC6 fold selectivity HDAC3: HDAC6 over HDAC3; for IC50: read-out: IC50 values (nM) HDAC6
T2 sequence (Q9UBN7 1-1215): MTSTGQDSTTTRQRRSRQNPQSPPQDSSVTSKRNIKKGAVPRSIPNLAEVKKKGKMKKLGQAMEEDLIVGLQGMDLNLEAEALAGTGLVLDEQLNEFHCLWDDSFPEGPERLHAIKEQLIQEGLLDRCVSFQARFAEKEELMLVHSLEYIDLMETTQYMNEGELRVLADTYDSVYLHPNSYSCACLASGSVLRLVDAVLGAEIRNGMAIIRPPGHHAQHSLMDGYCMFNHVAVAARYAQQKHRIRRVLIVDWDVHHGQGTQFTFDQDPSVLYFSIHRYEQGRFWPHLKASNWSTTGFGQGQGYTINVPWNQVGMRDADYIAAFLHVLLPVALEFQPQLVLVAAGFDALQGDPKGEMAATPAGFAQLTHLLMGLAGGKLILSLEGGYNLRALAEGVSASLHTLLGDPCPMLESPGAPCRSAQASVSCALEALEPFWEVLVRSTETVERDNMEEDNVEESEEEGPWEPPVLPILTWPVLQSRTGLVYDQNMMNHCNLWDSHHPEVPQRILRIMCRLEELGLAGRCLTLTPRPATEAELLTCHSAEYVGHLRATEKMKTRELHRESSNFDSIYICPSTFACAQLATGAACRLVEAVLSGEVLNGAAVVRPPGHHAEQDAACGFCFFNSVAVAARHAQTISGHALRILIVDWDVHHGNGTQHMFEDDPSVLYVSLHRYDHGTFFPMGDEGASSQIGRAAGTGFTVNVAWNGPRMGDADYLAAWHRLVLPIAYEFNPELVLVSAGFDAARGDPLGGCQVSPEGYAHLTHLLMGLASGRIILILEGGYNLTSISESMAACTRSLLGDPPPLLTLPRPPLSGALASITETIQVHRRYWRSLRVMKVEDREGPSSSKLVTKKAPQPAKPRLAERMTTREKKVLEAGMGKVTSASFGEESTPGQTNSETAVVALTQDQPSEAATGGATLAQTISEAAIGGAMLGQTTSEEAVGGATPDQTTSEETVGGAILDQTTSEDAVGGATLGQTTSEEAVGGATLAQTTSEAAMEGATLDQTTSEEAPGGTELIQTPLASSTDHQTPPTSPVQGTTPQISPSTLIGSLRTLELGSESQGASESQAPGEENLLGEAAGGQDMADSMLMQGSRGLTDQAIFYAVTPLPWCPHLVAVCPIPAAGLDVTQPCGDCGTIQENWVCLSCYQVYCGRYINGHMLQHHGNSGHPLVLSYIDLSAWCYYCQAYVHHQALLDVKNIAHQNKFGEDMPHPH

[1] = system: HDAC proteins in HeLa cell lysates; assay: Global HDAC inhibition with HeLa cell lysates (HDAC-Glo I/II substrate); type: biochemical; details: for Deacetylase activity (%): Hela Lysate
Experimental: HDAC activity was measured using the commercially available HDAC-Glo™ I/II substrate (Promega).
Lysates were prepared according to the reported procedure.^28 HeLa-S3 cells (purchased from Biovest) were lysed in lysis buffer (1×10^9 cells in 10 mL lysis buffer; 50 mM Tris-HCl, pH 8.0, 10% glycerol, 150 mM NaCl, 0.5% Triton X-100, and 1× protease inhibitor cocktail (GenDEPOT)) with rotation at 4° C. for 30 min. Cell debris was removed by centrifugation at 12000 rpm at 4° C. for 30 min. Protein concentration of the supernatant was determined using Bio-Rad protein assay (BioRad, Bradford reagent). Lysates were stored at −80° C.
To measure global HDAC inhibition, HeLa cell lysates (1 μg total protein) were mixed with HDAC-Glo™ buffer in polystyrene 96-well half area white plate (Corning) to a final volume of 12 μL, followed by addition of inhibitors in DMSO (0.5 μL) and incubation for 15 min at room temperature without rocking. An uninhibited control reaction was also included that contained DMSO (0.5 μL). Finally, deacetylase activity was measured using the HDAC-Glo™ assay kit (Promega) as per the manufacturer's protocol. Specifically, the HDAC-Glo™ substrate (1 mL) and developer ([…]) were first premixed to form the HDAC-Glo™ reagents. Then, to monitor deacetylase activity, HDAC-Glo™ reagent (5 μL) and HDAC-Glo™ buffer (7.5 μL) were added to each well (25 μL total volume) and incubated for 35 min at room temperature without rocking. The deacetylase activity was measured as luminescent signal using a GeniosPlus Fluorimeter (Tecan) at optimal gain. The concentrations of inhibitors reported in the dose-dependent studies (Table 2) are final concentrations after addition of HDAC-Glo™ reagent HDAC-Glo™ buffer.

[2] = read-out: Deacetylase activity (%) HDAC3
[3] = read-out: Deacetylase activity (%) HDAC2
[4] = read-out: Deacetylase activity (%) HDAC1
[5] = read-out: Deacetylase activity (%) HDAC8
[6] = read-out: Deacetylase activity (%) HDAC6

Chain of HDAC2 (Q92769 whole entry): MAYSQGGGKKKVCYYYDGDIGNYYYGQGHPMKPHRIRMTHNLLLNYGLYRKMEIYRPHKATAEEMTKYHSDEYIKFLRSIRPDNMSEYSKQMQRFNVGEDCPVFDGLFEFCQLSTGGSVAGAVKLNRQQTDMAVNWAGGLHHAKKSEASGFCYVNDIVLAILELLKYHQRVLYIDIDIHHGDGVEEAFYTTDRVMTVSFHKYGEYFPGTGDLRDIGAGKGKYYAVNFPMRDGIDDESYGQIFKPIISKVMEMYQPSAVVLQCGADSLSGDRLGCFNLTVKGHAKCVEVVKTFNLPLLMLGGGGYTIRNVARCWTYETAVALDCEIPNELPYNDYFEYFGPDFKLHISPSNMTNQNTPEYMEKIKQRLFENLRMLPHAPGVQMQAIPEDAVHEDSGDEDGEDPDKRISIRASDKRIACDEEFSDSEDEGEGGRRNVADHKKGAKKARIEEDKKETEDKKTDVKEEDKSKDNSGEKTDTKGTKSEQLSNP
Chain of HDAC3 (O15379 whole entry): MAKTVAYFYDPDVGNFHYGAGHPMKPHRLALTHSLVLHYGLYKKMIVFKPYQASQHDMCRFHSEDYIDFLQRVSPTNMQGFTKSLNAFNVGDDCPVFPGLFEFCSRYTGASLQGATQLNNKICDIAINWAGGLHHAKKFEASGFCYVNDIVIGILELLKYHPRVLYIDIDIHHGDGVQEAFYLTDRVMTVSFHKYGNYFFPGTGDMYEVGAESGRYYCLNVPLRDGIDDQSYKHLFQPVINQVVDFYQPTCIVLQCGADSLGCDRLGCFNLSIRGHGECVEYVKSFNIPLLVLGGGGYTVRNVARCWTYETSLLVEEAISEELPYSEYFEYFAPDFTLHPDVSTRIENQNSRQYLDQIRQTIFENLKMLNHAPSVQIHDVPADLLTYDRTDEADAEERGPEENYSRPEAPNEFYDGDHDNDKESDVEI
Chain of HDAC3 (Q9Y618 whole entry partner): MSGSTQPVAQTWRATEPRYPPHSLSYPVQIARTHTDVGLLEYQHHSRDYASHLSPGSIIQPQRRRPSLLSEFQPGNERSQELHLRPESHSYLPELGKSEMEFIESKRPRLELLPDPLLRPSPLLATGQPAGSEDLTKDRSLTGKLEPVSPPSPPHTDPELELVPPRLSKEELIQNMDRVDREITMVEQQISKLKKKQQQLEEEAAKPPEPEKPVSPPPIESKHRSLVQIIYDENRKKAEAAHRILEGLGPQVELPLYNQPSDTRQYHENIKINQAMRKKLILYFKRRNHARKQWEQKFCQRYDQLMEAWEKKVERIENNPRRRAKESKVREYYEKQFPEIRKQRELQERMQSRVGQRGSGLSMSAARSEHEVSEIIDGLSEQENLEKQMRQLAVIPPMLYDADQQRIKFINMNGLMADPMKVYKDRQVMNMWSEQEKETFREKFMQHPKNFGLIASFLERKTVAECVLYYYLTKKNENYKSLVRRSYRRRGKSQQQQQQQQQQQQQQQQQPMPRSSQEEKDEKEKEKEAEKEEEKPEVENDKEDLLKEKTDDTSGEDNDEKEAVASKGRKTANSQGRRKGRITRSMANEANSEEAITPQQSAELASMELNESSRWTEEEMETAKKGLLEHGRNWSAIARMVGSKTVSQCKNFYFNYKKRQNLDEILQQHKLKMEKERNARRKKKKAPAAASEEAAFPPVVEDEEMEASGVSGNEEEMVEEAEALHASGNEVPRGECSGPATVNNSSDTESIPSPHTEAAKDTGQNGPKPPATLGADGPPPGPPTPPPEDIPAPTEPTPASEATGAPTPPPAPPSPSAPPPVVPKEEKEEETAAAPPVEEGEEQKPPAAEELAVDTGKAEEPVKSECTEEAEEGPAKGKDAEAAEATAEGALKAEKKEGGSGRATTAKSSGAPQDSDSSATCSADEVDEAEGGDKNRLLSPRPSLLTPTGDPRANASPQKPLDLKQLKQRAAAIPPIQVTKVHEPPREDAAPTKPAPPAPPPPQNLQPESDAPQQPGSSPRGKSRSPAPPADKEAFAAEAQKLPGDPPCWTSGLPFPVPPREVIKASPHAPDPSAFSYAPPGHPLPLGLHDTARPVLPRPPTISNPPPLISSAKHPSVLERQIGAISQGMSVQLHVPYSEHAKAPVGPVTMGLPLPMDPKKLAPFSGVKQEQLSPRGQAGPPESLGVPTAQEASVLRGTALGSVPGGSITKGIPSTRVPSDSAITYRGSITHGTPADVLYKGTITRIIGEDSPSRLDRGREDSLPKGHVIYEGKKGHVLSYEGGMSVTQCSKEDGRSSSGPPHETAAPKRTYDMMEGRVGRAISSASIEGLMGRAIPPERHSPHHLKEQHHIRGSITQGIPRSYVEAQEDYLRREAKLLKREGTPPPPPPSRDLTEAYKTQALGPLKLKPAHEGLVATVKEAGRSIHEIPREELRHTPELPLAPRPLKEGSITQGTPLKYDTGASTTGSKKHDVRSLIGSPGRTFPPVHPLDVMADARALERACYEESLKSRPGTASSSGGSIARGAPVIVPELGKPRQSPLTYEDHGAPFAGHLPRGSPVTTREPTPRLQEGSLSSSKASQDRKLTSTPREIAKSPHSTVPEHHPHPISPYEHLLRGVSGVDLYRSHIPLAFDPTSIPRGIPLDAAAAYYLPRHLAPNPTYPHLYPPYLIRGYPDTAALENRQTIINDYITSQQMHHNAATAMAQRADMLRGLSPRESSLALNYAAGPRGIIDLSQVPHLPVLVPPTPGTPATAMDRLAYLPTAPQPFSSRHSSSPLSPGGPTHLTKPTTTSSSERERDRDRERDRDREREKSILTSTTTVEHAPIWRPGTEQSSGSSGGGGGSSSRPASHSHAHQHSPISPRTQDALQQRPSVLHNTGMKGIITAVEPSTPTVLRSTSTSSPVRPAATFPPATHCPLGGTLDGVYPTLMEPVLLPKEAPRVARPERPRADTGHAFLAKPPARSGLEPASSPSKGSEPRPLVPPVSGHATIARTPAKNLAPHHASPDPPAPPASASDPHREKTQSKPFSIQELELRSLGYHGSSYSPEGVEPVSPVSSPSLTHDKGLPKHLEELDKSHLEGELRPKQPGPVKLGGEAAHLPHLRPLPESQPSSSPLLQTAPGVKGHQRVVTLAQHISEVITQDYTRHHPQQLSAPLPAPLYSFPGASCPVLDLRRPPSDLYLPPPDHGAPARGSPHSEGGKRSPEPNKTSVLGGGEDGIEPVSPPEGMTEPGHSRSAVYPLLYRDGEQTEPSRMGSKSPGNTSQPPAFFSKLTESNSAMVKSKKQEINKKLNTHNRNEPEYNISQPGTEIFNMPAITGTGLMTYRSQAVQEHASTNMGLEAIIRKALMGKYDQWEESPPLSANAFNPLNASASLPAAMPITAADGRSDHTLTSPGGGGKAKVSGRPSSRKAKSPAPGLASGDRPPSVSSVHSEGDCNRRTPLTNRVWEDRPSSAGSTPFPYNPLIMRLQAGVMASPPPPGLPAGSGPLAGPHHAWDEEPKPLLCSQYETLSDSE

activity at 5 µM (HDAC3; [2]): 89 ± 2% | activity at 10 µM (HDAC3; [2]): 77 ± 2% | activity at 20 µM (HDAC3; [2]): 54 ± 4% | activity at 40 µM (HDAC3; [2]): 39 ± 2% | activity at 80 µM (HDAC3; [2]): 25 ± 2% | IC50 (HDAC3): 27000 nM | activity at 5 µM (HDAC2; [3]): 96 ± 1% | activity at 10 µM (HDAC2; [3]): 83 ± 5% | activity at 20 µM (HDAC2; [3]): 71 ± 4% | activity at 40 µM (HDAC2; [3]): 43 ± 5% | activity at 80 µM (HDAC2; [3]): 29 ± 1% | IC50 (HDAC2): 36000 nM | activity at 5 µM (HDAC1; [4]): 88 ± 4% | activity at 10 µM (HDAC1; [4]): 72 ± 3% | activity at 20 µM (HDAC1; [4]): 53 ± 6% | activity at 40 µM (HDAC1; [4]): 38 ± 3% | activity at 80 µM (HDAC1; [4]): 24 ± 2% | IC50 (HDAC1): 25000 nM | IC50 (recombinant HDAC8): 27 nM | activity at 0.1 µM (recombinant HDAC8; [5]): 22 ± 1% | activity at 0.0125 µM (recombinant HDAC8; 1.25 × 10^−8 M, read-out: Deacetylase activity (%) HDAC8): 64 ± 2% | activity at 0.2 µM (recombinant HDAC8; [5]): 16 ± 1% | activity at […] (recombinant HDAC8; 2.5 × 10^−8 M, read-out: Deacetylase activity (%) HDAC8): 56 ± 4% | activity at 0.05 µM (recombinant HDAC8; [5]): 37 ± 3% | HDAC8 fold selectivity HDAC1 (recombinant HDAC8): 260 fold | HDAC8 fold selectivity HDAC2 (recombinant HDAC8): 330 fold | HDAC8 fold selectivity HDAC3 (recombinant HDAC8): 240 fold | HDAC6 fold selectivity HDAC1 (HDAC6): 420 fold | HDAC6 fold selectivity HDAC2 (HDAC6): 540 fold | HDAC6 fold selectivity HDAC3 (HDAC6): 390 fold | activity at 0.0125 µM (HDAC6; [6]): 67 ± 4% | activity at 0.05 µM (HDAC6; [6]): 57 ± 5% | activity at 0.1 µM (HDAC6; [6]): 37 ± 6% | activity at 0.2 µM (HDAC6; [6]): 26 ± 4% | activity at […] (HDAC6; [6]): 59 ± 8% | IC50 (HDAC6): 48 nM
SMILES: O=C(CC[C@@H](CCCC(=O)Nc1ccccc1)Cc1ccccc1)NO [(R)-1f, (R)-4-benzyl-N^1-hydroxy-N^8-phenyloctanediamide]

activity at 10 µM (HDAC3; [2]): 76 ± 5% | activity at 20 µM (HDAC3; [2]): 67 ± 4% | activity at 40 µM (HDAC3; [2]): 48 ± 2% | activity at 80 µM (HDAC3; [2]): 33 ± 4% | activity at 160 µM (HDAC3; [2]): 15 ± 2% | IC50 (HDAC3): 37000 nM | activity at 10 µM (HDAC2; [3]): 87 ± 5% | activity at 20 µM (HDAC2; [3]): 74 ± 3% | activity at 40 µM (HDAC2; [3]): 56 ± 3% | activity at 80 µM (HDAC2; [3]): 37 ± 6% | activity at 160 µM (HDAC2; [3]): 22 ± 2% | IC50 (HDAC2): 51000 nM | activity at 10 µM (HDAC1; [4]): 84 ± 7% | activity at 20 µM (HDAC1; [4]): 68 ± 3% | activity at 40 µM (HDAC1; [4]): 50 ± 3% | activity at 80 µM (HDAC1; [4]): 32 ± 2% | activity at 160 µM (HDAC1; [4]): 17 ± 1% | IC50 (HDAC1): 40000 nM | IC50 (recombinant HDAC8): 150 nM | activity at 0.1 µM (recombinant HDAC8; [5]): 61 ± 3% | activity at 0.2 µM (recombinant HDAC8; [5]): 42 ± 2% | activity at 0.4 µM (recombinant HDAC8; 4.0 × 10^−7 M, read-out: Deacetylase activity (%) HDAC8): 28 ± 1% | activity at 0.05 µM (recombinant HDAC8; [5]): 75 ± 6% | activity at 0.8 µM (recombinant HDAC8; 8.0 × 10^−7 M, read-out: Deacetylase activity (%) HDAC8): 19 ± 1% | HDAC8 fold selectivity HDAC1 (recombinant HDAC8): 930 fold | HDAC8 fold selectivity HDAC2 (recombinant HDAC8): 1300 fold | HDAC8 fold selectivity HDAC3 (recombinant HDAC8): 1000 fold | HDAC6 fold selectivity HDAC1 (HDAC6): 520 fold | HDAC6 fold selectivity HDAC2 (HDAC6): 750 fold | HDAC6 fold selectivity HDAC3 (HDAC6): 560 fold | activity at 0.05 µM (HDAC6; [6]): 64 ± 4% | activity at 0.1 µM (HDAC6; [6]): 48 ± 7% | activity at 0.2 µM (HDAC6; [6]): 37 ± 7% | activity at 0.4 µM (HDAC6; [6]): 17 ± 6% | activity at 0.8 µM (HDAC6; [6]): 16 ± 6% | IC50 (HDAC6): 95 ± 9 nM
SMILES: O=C(CC[C@H](CCCC(=O)Nc1ccccc1)Cc1ccccc1)NO [(S)-1f, (S)-4-benzyl-N^1-hydroxy-N^8-phenyloctanediamide]

IC50 ([1]; HeLa cell lysates): 3.3 µM
SMILES: CC(CCCC(=O)Nc1ccccc1)CCC(=O)NO (racemic) [Compound 1a, N^1-hydroxy-4-methyl-N^8-phenyloctanediamide]
Deacetylase activity (%) ([1]; 1.0 × 10^−5 M): 17 ± 2% | Deacetylase activity (%) ([1]; 1.25 × 10^−6 M): 79 ± 3% | Deacetylase activity (%) ([1]; 5.0 × 10^−6 M): 38 ± 4% | Deacetylase activity (%) ([1]; 6.25 × 10^−6 M): 91 ± 2% | fold less potent than SAHA ([1]; HeLa cell lysates, compared to parent SAHA): 18 fold | Deacetylase activity (%) ([1]; […] 10^−6 M): 60 ± 3%

IC50 ([1]; HeLa cell lysates): 65 ± 6 µM
SMILES: CCCCCCC(CCCC(=O)Nc1ccccc1)CCC(=O)NO (single isomer, unassigned) [Compound 1e, 4-hexyl-N^1-hydroxy-N^8-phenyloctanediamide]
Deacetylase activity (%) ([1]; 1.0 × 10^−4 M): 32 ± 1% | Deacetylase activity (%) ([1]; 1.25 × 10^−5 M): 104 ± 1% | Deacetylase activity (%) ([1]; 2.0 × 10^−4 M): 15 ± 1% | Deacetylase activity (%) ([1]; 5.0 × 10^−5 M): 57 ± 2% | Deacetylase activity (%) ([1]; […] 10^−5 M): 88 ± 1%
